The inhibition in vivo is the drop in the measured response relative to a control, in per cent.

The test system of assay [1] is Rattus norvegicus. As to the kind of experiment: Anti-inflammatory activity against Rattus norvegicus Albino Sprague-Dawley (rat) assessed as inhibition of carrageenan-induced paw edema at 50 mg/kg, ip administered 30 min prior to carrageenan injection measured after 1 hr by plethysmometer analysis. It counts as functional. To be noted: for inhibition in vivo at 50 mg/kg: route intraperitoneal. Background: The carrageenan paw model is a standard test of acute inflammation.

The subject of assay [2] is Rattus norvegicus. As to the kind of experiment: Anti-inflammatory activity against Rattus norvegicus albino Sprague-Dawley (rat) assessed as inhibition of carrageenan-induced paw edema at 50 mg/kg, ip administered 30 min prior to carrageenan injection measured after 3 hr by plethysmometer analysis. Also noted: dose 50 mg/kg. Format: functional, organism-based.
Assay [3] relates to Rattus norvegicus. As to the kind of experiment: Anti-inflammatory activity against Rattus norvegicus Albino Sprague-Dawley (rat) assessed as inhibition of carrageenan-induced paw edema at 50 mg/kg, ip administered 30 min prior to carrageenan injection measured after 2 hr by plethysmometer analysis. To be noted: for inhibition in vivo at 50 mg/kg: route intraperitoneal. Format: functional.

Assay [4] has as its system Rattus norvegicus. The experiment in a line: Anti-inflammatory activity against Rattus norvegicus Albino Sprague-Dawley (rat) assessed as inhibition of carrageenan-induced paw edema at 50 mg/kg, ip administered 30 min prior to carrageenan injection measured after 4 hr by plethysmometer analysis. It counts as functional, organism-based. More on the design: dose 50 mg/kg.

Assay [5] has as its system Mus musculus. As to the kind of experiment: Analgesic activity in Mus musculus Swiss (mouse) assessed as inhibition of acetic acid-induced writhing at 50 mg/kg, sc administered 1 hr prior to acetic acid injection measured after 5 min for 30 min. To be noted: route subcutaneous. Format: functional. Background: In writhing tests, fewer writhes than in controls are read as antinociception.

Assay [6] concerns Rattus norvegicus. As to the kind of experiment: Anti-inflammatory activity against Rattus norvegicus Albino Sprague-Dawley (rat) assessed as inhibition of carrageenan-induced paw edema at 18 mg/kg, ip administered 30 min prior to carrageenan injection measured after 1 hr by plethysmometer analysis. Format: functional. To be noted: route intraperitoneal.
In assay [7] the test system is Rattus norvegicus. The experiment in a line: Anti-inflammatory activity against Rattus norvegicus Albino Sprague-Dawley (rat) assessed as inhibition of carrageenan-induced paw edema administered 30 min prior to carrageenan injection measured after 4 hr by plethysmometer analysis. Format: functional.
The subject of assay [8] is Mus musculus. The experiment in a line: Analgesic activity in Mus musculus Swiss (mouse) assessed as inhibition of acetic acid-induced writhing administered 1 hr prior to acetic acid injection measured after 5 min for 30 min. It counts as functional. To be noted: read-out: PD50.

Activity calls are given as the source filed them. No cut-off for these calls is given here.

`Nc1nc(-c2ccc(-n3c(-c4ccncc4)nc4ccc(Br)cc4c3=O)cc2)cs1`: the inhibition result in assay [1], in assay [2] and in assay [4] was “Active” each time. The inhibition in vivo at 50 mg/kg in assay [3] came to 62.8%.
Regarding `O=C1N=C(c2ccc(-n3c(-c4ccncc4)nc4ccc(Br)cc4c3=O)cc2)CC(c2ccc(Cl)cc2)N1` (centres undefined), the inhibition in vivo at 50 mg/kg in assay [5] is 75.4%; in assay [1], 62.3%. For the same compound, the inhibition entry in assay [2], in assay [3] and in assay [4] was “Active” in each case.
As for `COc1ccc2c(c1)c(CC(=O)O)c(C)n2C(=O)c1ccc(Cl)cc1` [INDOMETHACIN], in assay [6], the inhibition in vivo at 18 mg/kg turned out to be 62.9%.
Turning to `O=C(/C=C/c1ccc([N+](=O)[O-])cc1)c1ccc(-n2c(-c3ccncc3)nc3ccc(Br)cc3c2=O)cc1`, the inhibition entry in assay [1], in assay [2] and in assay [4] was “Active” in each case. The inhibition in vivo at 50 mg/kg in assay [3] amounted to 70.5%. Moreover, the ED50 in assay [7] stood at 22.3 mg/kg.
Take `COc1ccc(C2CC(c3ccc(-n4c(-c5ccncc5)nc5ccc(Br)cc5c4=O)cc3)=NN2C(C)=O)cc1` (centres undefined): in assay [1], the inhibition in vivo at 50 mg/kg is 64.5%. Also, the inhibition result in assay [2], in assay [3] and in assay [4] was “Active” throughout.
As for `O=c1c2cc(Br)ccc2nc(-c2ccncc2)n1-c1ccc(-c2csc(O)n2)cc1`, the inhibition in vivo at 50 mg/kg in assay [5] came out at 75.7%; in assay [3] it was 67.3%. In addition, in assay [8], the ED50 came to 15 mg/kg. For the same compound, the inhibition entry in assay [1], in assay [2] and in assay [4] was “Active” in each case.
As for `O=C(/C=C/c1ccc(Cl)cc1)c1ccc(-n2c(-c3ccncc3)nc3ccc(Br)cc3c2=O)cc1`, in assay [1], the inhibition in vivo at 50 mg/kg came out at 73.8%. Moreover, the inhibition result in assay [2], in assay [3] and in assay [4] was “Active” each time.

These data come from ChEMBL document CHEMBL3046470, “Design, synthesis, anti-inflammatory, analgesic screening, and molecular docking of some novel 2-pyridyl (3H)-quinazolin-4-one derivatives” (2013).
